Assay results taken from patent US8101615B2, “1,4-diaryl-dihydropyrimidin-2-ones and their use as human neutrophil elastase inhibitors” (Bayer Pharma Aktiengesellschaft, priority 2004, dated 2012).

These compounds were tested on human polymorphonuclear cells (PMNs) (assay: In vitro PMN elastolysis assay (Example II-A)). Conditions: at 1.2 μM; mean±s.e.m.; n=3 different donors at 3.6×10^5 cells per well.
Format: cell-based
Description: This assay is used to determine the elastolytic potential of human polymorphonuclear cells (PMNs) and assess the proportion of degradation due to neutrophil elastase [cf. Z. W. She et al., Am. J. Respir. Cell. Mol. Biol. 9, 386-392 (1993)].
Tritiated elastin, in suspension, is coated on to a 96 well plate at 10 μg per well. Test and reference [ZD-0892 (J. Med. Chem. 40, 1876-1885, 3173-3181 (1997), WO 95/21855) and α1 protease inhibitor (α1PI)] compounds are added to the wells at the appropriate concentrations. Human PMNs are separated from peripheral venous blood of healthy donors and resuspended in culture media. The neutrophils are added to the coated wells at concentrations ranging between 1×10^6 to 1×10^5 cells per well. Porcine pancreatic elastase (1.3 μM) is used as a positive control for the assay, and α1PI (1.2 μM) is used as the positive inhibitor of neutrophil elastase. The cellular control is PMNs without compound at each appropriate cell density. The cells plus compounds are incubated in a humidified incubator at 37° C. for 4 hours. The plates are centrifuged to allow the harvest of cell supernatant only. […] The plates are dried until no liquid is visible in the wells and read in a beta counter for 3 minutes per well. […]
The compounds of this invention are evaluated for their inhibitory activity in this HNE-dependent model of neutrophil elastolysis.

Compound | inhibition of 3H-elastin elastolysis [%]
α1PI: α1 protease inhibitor, used as the positive inhibitor of neutrophil elastase | 83.46±3.97

Same assay, conditions: mean±s.e.m.; n=2 different donors at 3.6×10^5 cells per well

IC50 [nM] | Compound
45.5 ± 7.75 | COc1ccc(C(=O)N[C@H](C(=O)N2CCC[C@H]2C(=O)N[C@H](C(=O)C(F)(F)F)C(C)C)C(C)C)cc1 [ZD-0892]

Each compound was assayed against T1, human neutrophil elastase (HNE) (Homo sapiens, UniProt P08246) (assay: In vitro inhibition of HNE using a fluorogenic peptide substrate (Example I-A)). Conditions: fluorogenic peptide substrate MeOSuc-Ala-Ala-Pro-Val-AMC, 384 MTP assay format.
T1 construct: purchased SERVA Electrophoresis GmbH, Heidelberg, Germany #20927.01
T1 sequence (P08246 30-267): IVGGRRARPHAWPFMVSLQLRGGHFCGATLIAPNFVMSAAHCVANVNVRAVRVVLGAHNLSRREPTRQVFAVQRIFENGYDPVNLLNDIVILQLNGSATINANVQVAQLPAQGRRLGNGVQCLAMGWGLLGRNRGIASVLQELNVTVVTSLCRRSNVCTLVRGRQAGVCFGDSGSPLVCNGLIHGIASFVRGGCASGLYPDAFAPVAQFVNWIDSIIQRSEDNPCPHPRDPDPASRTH
Format: biochemical
Description: I. In vitro Enzyme Assays of Human Neutrophil Elastase (HNE)
The test solution is prepared by mixing 10 μl of test compound dilution, 20 μl of HNE enzyme dilution (final concentration 8-0.4 μU/ml, routinely 2.1 μU/ml) and 20 μl of substrate dilution (final concentration 1 mM-1 μM, routinely 20 μM), respectively. The solution is incubated for 0-2 hrs at 37° C. (routinely one hour). The fluorescence of the liberated AMC due to the enzymatic reaction is measured at 37° C. (TECAN spectra fluor plus plate reader). […] IC50 values are determined by RFU-versus-[I] plots. Km and Km(app.) values are determined by Lineweaver-Burk plots and converted to Ki values by Dixon plots.

Compound | IC50 [nM]
CC1=C(CO)C(c2ccc(C#N)cc2)NC(=O)N1c1cccc(C(F)(F)F)c1 (centres unmarked) [Example 1, 4-{5-(Hydroxymethyl)-6-methyl-2-oxo-1-[3-(trifluoromethyl)phenyl]-1,2,3,4-tetrahydropyrimidin-4-yl}benzonitrile] | 20
CC1=C(C(=O)NC2CC2)C(c2ccc(C#N)cc2)NC(=O)N1c1cccc(C(F)(F)F)c1 (centres unmarked) [Example 6, 4-(4-Cyanophenyl)-N-cyclopropyl-6-methyl-2-oxo-1-[3-(trifluoromethyl)phenyl]-1,2,3,4-tetrahydropyrimidine-5-carboxamide] | 200
CC1=C(C(=O)NCc2ccccc2F)C(c2ccc(C#N)cc2)NC(=O)N1c1cccc(C(F)(F)F)c1 (centres unmarked) [Example 14] | 1000
CC1=C(C(=O)C2CCCCC2)C(c2ccc(C#N)cc2)NC(=O)N1c1cccc(C(F)(F)F)c1 (centres unmarked) [Example 21, 4-{5-(Cyclohexylcarbonyl)-6-methyl-2-oxo-1-[3-(trifluoromethyl)phenyl]-1,2,3,4-tetrahydropyrimidin-4-yl}benzonitrile] | 130

Other lines, results leading:

IC50 [nM] | Compound
23 | COC(=O)c1coc(CN2C(=O)N(c3cccc(C(F)(F)F)c3)C(C)=C(C(=O)C3CC3)C2c2ccc(C#N)cc2)n1 (centres unmarked) [Example 43, Methyl 2-{[6-(4-cyanophenyl)-5-(cyclopropylcarbonyl)-4-methyl-2-oxo-3-[3-(trifluoromethyl)phenyl]-3,6-dihydropyrimidin-1(2H)-yl]methyl}-1,3-oxazole-4-carboxylate]
20 | CC1=C(C(=O)C2CC2)C(c2ccc(C#N)cc2)N(CC(=O)NS(=O)(=O)CC(F)(F)F)C(=O)N1c1cccc(C(F)(F)F)c1 (centres unmarked) [Example 45, 2-[6-(4-Cyanophenyl)-5-(cyclopropylcarbonyl)-4-methyl-2-oxo-3-[3-(trifluoromethyl)phenyl]-3,6-dihydropyrimidin-1(2H)-yl]-N-[(2,2,2-trifluoroethyl)sulfonyl]acetamide]
50 | CC1=C(C(=O)NS(=O)(=O)CC(F)(F)F)C(c2ccc(C#N)cc2)N(CC(=O)OC(C)(C)C)C(=O)N1c1cccc(C(F)(F)F)c1 (centres unmarked) [Example 69]
1000 | CC1=C(C(=O)NS(=O)(=O)c2ccc(C#N)cc2)C(c2ccc(C#N)cc2)NC(=O)N1c1cccc(C(F)(F)F)c1 (centres unmarked) [Example 73]
50 | CC1=C(CCC(=O)O)C(c2ccc(C#N)cc2)NC(=O)N1c1cccc(C(F)(F)F)c1 (centres unmarked) [Example 78, 3-{4-(4-Cyanophenyl)-6-methyl-2-oxo-1-[3-(trifluoromethyl)phenyl]-1,2,3,4-tetrahydropyrimidin-5-yl}propanoic acid]
